Data published in article PMC11729428, “New Potent Inhibitor of Transforming Growth Factor-Beta (TGFβ) Signaling that is Efficacious against Microsatellite Stable Colorectal Cancer Metastasis in Combination with Immune Checkpoint Therapy in Mice” (ACS Pharmacology & Translational Science, 2024).
pKd: −log10 of the molar value. Like-named read-outs stand apart in the source and are kept apart here.

Key:
[1] = design: method as in PMID 24786585; details: rats (♀ SD), oral, 10 mg/kg ref 18; cited from earlier work
[2] = Plasma pharmacokinetics after single oral administration in mice; type: in vivo; details: male, mouse, 71 mg/kg
Description: (§1) We assessed the in vivo pharmacokinetic properties of HYL001 after a single oral administration (dose of 71 mg/kg) in BALB/c mice as well as in Sprague–Dawley (SD) Rats. Liquid chromatography–tandem mass spectrometry (LC/MS/MS) was used for the determination of HYL001 in plasma (Figure S2 and Table 2).
6. Methods for in vivo characterizations of HYL001 […]
WinNonlin software (Version 8.0) […]

[3] = Plasma pharmacokinetics after single oral administration in rats; type: in vivo, Sprague Dawley rats; details: 71 mg/kg, rats (♂ SD)
Description: as §1
6. Methods for in vivo characterizations of HYL001
Similarly, three rats were used in this study. Animals were administered orally with a suspension formulation of […]

[4] = Plasma protein binding by rapid equilibrium dialysis, mouse plasma
Description: 5. Methods for In vitro characterizations of HYL001 […]
Rapid equilibrium dialysis was performed in triplicates with a rapid equilibrium dialysis (RED) by Sai Life Sciences Lt. (Telangana, India). The RED device contains a dialysis membrane with a molecular weight cut -off […]
of 8,000 Da, separating two chambers for plasma and buffer, respectively. […]
were added to the plasma chamber, versus phosphate buffer saline (pH 7.4) to the buffer chamber. Dialysis was performed for 4 h with 100 RPM shaking at 37 °C. […]
compounds in plasma were either frozen immediately (T0 sample), or incubated at 37 °C for 4 h without dialysis (non-dialysed), respectively.
Following dialysis, an aliquot was removed from either chamber and diluted with equal volume of opposite matrix to nullify the matrix effect. Similarly, buffer was added to recovery and stability samples. Next, acetonitrile (containing internal standard, glipizide) was added to the mixtures for protein precipitation and vortexed for 5 minutes. The samples were centrifuged at 4000 RPM at 4 °C for 10 min and the supernatant was submitted for liquid chromatography mass spectrometry (LC-MS/MS) analysis. Samples were monitored for parent compound using multiple reaction monitoring (MRM) mode.
The peak area ratios (PAR, analyte versus internal standard) in plasma vs bufffer were used to determine the fraction of compound bound to plasma proteins. The following equation was used to determine the extent of plasma protein binding: percent free drug = 100% x (PARbuffer / PARplasma); percent bound drug = 100 - % free drug. Recovery was calculated as 100% x (PARplasma + PARbuffer)dialysed / (PARplasma)non-dialysed; stability as 100% x (PAR)non-dialysed / (PARplasma)frozen at T0. […]

panel of enzymes = assay: In vitro safety pharmacology, enzymatic inhibition (SafetyScreen 44); type: biochemical; details: 10 μM HYL001
Description: To identify potential adverse off-target drug interactions and derisk the development of HYL001 as a drug,[22] we performed binding and enzymatic inhibition assays with a panel of key proteins (mainly cell receptors, neurotransmitter transporters, and ion channels). […]
analysis by LC-MS/MS, using MRM mode. […]
related to phase I and phase II metabolism, respectively.
The PARs were used for calculation of metabolic stability. The 0 min area ratio was considered as 100%. The […]
incubation volume / number of cells (in millions) x K e. To calculate into full body context, the values of 120 […]
In vitro safety pharmacology […]
compared with historical values determined at Eurofins. Binding was defined as the % inhibition of the signal […]
enzyme activity. […] Results showing
The tail current amplitude, induced by a one […]
and expressed as % inhibition.
The Ames test was performed at Xenomatrix (Allschwil, Switzerland). Bacteria from the S. typhimurium

hERG potassium channel = hERG potassium channel (Homo sapiens, UniProt Q12809); assay: in vitro; details: CHO-K1 cells (hERG current)
Description: clamp (Eurofins, Celle L’Evescault, France) on CHO -K1 cells. The tail current amplitude, induced by a one
second test pulse to -40 mV after a two second pulse to +20 mV, was measured before and aft er drug incubation

ALK6 (BMPR1B) = molecular target: T1, ALK6 (BMPR1B) (Homo sapiens, UniProt O00238); design: method as in earlier work; details: reported data ref 15; read-out: Binding constant (Kd) ALK6 (BMPR1B); cited from earlier work
T1 construct: purchased Eurofins/DiscoveryX (KINOMEscan service)

ALK1 (ACVRL1) = molecular target: T2, ALK1 (ACVRL1) (Homo sapiens, UniProt P37023); design: method as in earlier work; details: reported data ref 15; read-out: Binding constant (Kd) ALK1 (ACVRL1); cited from earlier work
T2 construct: purchased Eurofins/DiscoveryX (KINOMEscan service)

ACVR2B = molecular target: T3, ACVR2B (Homo sapiens, UniProt Q13705); design: method as in earlier work; details: reported data ref 15; read-out: Binding constant (Kd) ACVR2B; cited from earlier work
T3 construct: purchased Eurofins/DiscoveryX (KINOMEscan service)

[5] = male, Sprague-Dawley, rat, plasma

hERG potassium channel, sequence (Q12809 whole entry): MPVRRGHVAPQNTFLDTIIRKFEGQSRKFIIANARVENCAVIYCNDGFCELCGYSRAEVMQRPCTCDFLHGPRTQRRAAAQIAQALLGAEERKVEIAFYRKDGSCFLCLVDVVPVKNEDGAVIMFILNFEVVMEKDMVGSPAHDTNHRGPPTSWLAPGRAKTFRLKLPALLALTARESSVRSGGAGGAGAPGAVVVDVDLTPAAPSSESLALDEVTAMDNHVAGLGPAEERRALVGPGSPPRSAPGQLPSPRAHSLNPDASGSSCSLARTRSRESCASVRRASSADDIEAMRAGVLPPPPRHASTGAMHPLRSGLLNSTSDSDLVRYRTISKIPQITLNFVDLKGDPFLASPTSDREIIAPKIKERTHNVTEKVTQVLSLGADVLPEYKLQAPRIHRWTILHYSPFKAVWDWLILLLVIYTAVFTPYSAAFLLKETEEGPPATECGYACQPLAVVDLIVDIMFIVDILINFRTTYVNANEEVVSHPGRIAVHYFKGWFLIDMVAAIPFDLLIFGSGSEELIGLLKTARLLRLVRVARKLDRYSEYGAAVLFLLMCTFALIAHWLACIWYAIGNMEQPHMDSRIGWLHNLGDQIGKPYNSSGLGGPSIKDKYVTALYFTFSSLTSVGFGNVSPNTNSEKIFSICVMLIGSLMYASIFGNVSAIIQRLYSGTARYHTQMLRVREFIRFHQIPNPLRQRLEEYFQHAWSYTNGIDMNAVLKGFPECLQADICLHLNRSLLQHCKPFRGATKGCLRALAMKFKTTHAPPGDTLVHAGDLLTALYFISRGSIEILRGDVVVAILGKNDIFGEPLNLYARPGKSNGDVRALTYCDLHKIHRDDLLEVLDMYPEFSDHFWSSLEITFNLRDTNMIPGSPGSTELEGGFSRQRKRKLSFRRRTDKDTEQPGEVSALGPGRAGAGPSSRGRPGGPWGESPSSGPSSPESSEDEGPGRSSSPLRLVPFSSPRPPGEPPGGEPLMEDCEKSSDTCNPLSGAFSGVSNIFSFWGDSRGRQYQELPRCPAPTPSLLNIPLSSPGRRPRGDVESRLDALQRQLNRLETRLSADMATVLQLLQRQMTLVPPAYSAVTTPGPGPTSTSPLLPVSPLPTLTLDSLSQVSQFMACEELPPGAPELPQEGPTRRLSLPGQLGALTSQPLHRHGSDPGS
T3 sequence (Q13705 19-512): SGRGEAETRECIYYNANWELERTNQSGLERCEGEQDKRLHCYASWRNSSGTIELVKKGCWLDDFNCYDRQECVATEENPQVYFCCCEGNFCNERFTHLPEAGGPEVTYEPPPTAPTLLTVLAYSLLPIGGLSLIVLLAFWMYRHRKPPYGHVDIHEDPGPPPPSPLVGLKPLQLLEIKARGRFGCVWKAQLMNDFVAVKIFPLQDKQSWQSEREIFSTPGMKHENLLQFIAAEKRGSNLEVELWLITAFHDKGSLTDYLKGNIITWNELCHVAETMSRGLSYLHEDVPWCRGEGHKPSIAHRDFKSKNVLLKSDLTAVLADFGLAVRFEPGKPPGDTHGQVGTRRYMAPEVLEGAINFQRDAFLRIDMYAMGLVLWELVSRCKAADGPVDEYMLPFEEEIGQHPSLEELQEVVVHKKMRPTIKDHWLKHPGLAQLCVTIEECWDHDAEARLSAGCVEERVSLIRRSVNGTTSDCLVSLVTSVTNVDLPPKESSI
T1 sequence (O00238 14-502): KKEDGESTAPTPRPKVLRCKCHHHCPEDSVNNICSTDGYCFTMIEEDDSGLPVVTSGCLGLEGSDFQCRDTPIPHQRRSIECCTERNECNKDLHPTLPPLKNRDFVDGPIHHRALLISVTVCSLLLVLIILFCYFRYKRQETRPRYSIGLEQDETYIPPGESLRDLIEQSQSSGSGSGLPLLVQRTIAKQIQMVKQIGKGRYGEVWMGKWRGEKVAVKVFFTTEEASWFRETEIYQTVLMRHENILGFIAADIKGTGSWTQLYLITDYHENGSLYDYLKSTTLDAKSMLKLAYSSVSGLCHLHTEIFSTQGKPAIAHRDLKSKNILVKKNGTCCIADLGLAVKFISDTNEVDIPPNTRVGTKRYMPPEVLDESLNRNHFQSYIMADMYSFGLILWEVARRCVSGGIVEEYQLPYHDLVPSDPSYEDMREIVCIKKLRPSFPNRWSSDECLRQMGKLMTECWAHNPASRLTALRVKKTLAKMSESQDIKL
T2 sequence (P37023 22-503): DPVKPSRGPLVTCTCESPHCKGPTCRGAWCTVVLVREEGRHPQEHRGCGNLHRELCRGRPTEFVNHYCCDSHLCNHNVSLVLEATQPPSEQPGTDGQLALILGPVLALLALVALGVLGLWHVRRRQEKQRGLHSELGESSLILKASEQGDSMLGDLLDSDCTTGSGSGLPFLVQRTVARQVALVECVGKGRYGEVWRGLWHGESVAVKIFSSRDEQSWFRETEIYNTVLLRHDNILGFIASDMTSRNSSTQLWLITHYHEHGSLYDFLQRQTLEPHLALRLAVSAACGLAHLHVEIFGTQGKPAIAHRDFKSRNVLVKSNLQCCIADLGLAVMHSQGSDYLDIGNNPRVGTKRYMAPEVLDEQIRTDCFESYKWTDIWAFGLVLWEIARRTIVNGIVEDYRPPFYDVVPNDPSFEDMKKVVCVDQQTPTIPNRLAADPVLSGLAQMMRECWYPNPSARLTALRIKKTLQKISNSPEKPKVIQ

For Cc1cccc(-c2[nH]c(CNc3ccccc3F)nc2-c2ccc3ncnn3c2)n1 [vactosertib, N -((4-([1,2,4]Triazolo[1,5-a]Pyridin-6-Yl)-5-(6-Methylpyridin-2-Yl)-1 H -Imidazole-2-Yl)Methyl)-2-Fluoroaniline], the AUCinf [1] is listed as 1.426 µg·h/mL, the Cmax [1] is listed as 1.62 µg/mL and the T1/2 [1] is listed as 2.5 h.

Work on Cc1cccc(-c2nn3c(c2-c2ccnc4ccc(O)cc24)CCC3)n1 [HYL001, 4-(2-(6-Methylpyridin-2-yl)-5,6-dihydro-4H-pyrrolo[1,2-b]pyrazol-3-yl)quinolin-6-ol] yielded a half-life ([2]; BALB/c, po) of ~2.5 h, an AUC(0-inf) ([2]; mice (♂ BALB/c)) of 4.11 µg·h/mL and an AUC(0-t) ([2]; mice (♂ BALB/c)) of 3.52 µg·h/mL. The CL/F ([2]; mice (♂ BALB/c)) was 17.3 L/h/kg, the Cmax ([2]; mice (♂ BALB/c)) was 2.05 µg/mL and the Tmax ([2]; mice (♂ BALB/c)) was 0.25 h. It also gave a Vd/F ([2]; mice (♂ BALB/c), read-out: Vss/F) of 66.7 L/kg, a half-life ([3]; male, Sprague-Dawley, rat, plasma, po) of ~5 h and an AUC(0-inf) [3, 5] of 22 µg·h/mL. It also gave an AUC(0-t) [3, 5] of 21.6 µg·h/mL, a CL/F [3, 5] of 3.23 L/h/kg and a Cmax [3, 5] of 8.54 µg/mL. The Tmax [3, 5] was 0.67 h, the Vd/F ([3]; male, Sprague-Dawley, rat, plasma, read-out: Vss/F) was 10.8 L/kg and the T1/2 [3] was 4.8 h. For the same molecule, the “% Compound remaining at 4 hrs” value ([4]; mice plasma, 37 °C) was 113.1%, the recovery at 4 h, 5 µM ([4]; mouse, plasma (rapid equilibrium dialysis device), pH 7.4) was 112% and the fraction unbound at 4 h, 5 µM ([4]; mouse, plasma, pH 7.4) was 0.048. The “Inhibition of any of the tested enzymatic activities” value (panel of enzymes) was ≤ 50%, the inhibition at 3.7 µM (hERG potassium channel) was 1.8% and the inhibition at 11.1 µM (hERG potassium channel) was 8.4%. The inhibition at 33.3 µM (hERG potassium channel) was 22.8%.

For Cc1cccc(-c2nn3c(c2-c2ccnc4ccc(C(N)=O)cc24)CCC3)n1 [galunisertib], the pKd (ALK6 (BMPR1B)) is listed as 6.33, the pKd (ALK1 (ACVRL1)) is listed as 4.60 and the pKd (ACVR2B) is listed as 6.16.
